Measured values from PMC9124651, “High-performance thin-layer chromatography in combination with an acetylcholinesterase-inhibition bioassay with pre-oxidation of organothiophosphates to determine neurotoxic effects in storm, waste, and surface water” (Analytical and Bioanalytical Chemistry, 2022).

Molecular target: T1, AChE from electric eel (Electrophorus electricus) (Electrophorus electricus, UniProt O42275)
T1 construct: purchased Sigma-Aldrich GmbH (Steinheim, Germany)
Experiment: HPTLC-(Ox)-AChE-I assay, immersion method (plates immersed in AChE solution)
Assay type: biochemical
Settings: without oxidation; for IC10 (10% AChE inhibition), best fit / IC20 (20% AChE inhibition), best fit / IC50 (50% AChE inhibition), best fit / IC80 (80% AChE inhibition), best fit: OTPs 100 µL, oxons 10 µL applied, peak heights, n = 3
Method: LiChrospher 10 × 20 cm HPTLC Silica gel 60 F254s plates (Merck, Darmstadt, Germany) with a layer thickness of 170–190 µm and spherical silica particles with a size of 7 µm were used. The HPTLC plates were immersed twice in 2-propanol for 20 min, each time followed by a drying step at room temperature for 20 min. The plates then were pre-developed with methanol, dried for 20 min at room temperature, heated at 105 °C for 20 min, and stored in a desiccator for further use. The automatic TLC Sampler 4 (ATS 4, CAMAG AG, Muttenz, Switzerland) was used for sample application. The desired sample volumes were sprayed as 6-mm-wide bands onto the HPTLC plates with an application speed of 300 nL/s. The distances of the exterior bands from the edges of the plates were 15 mm. The distance from the bottom edge was 8 mm for all bands. Methanol was used as rinsing solvent. The following further application parameters were used: filling speed 15 µL/s, pre-dosage volume 200 nL, retraction volume 200 nL, rinsing vacuum time 4 s, filling vacuum time 0 s, rinsing cycles 2, and filling cycles 1. The development of the HPTLC plates was realized by the Automated Multiple Development 2 (AMD 2, CAMAG, Muttenz, Switzerland). The OTPs, their oxons, and environmental samples were separated with an eluent mixture of cyclohexane, dichloromethane, and acetone in different proportions and with increasing migration distances (Fig. S2). After each development step, a drying step of 3 min under vacuum followed. The final migration distance was 80 mm and the whole procedure took approximately 45 min. In addition, a simpler development process was used containing only the last step of the previous described method.
After chromatographic development, 10 mL of freshly prepared NBS (100 µg/mL) was sprayed onto the HPTLC plates with a glass reagent sprayer, followed by a 5-min incubation at room temperature. The following AChE-I assay was performed in parts according to Mendoza et al., Stütz et al., and Weins and Jork. AChE was buffered in TRIS/HCl at a pH of 7.8 (2.5 U/mL). The AChE solution was either sprayed onto the HPTLC plates with a glass reagent sprayer until the plates were evenly moist (approx. 10 mL) or the plates were immersed in the AChE solution using the Chromatogram Immersion Device 3 (CID 3, CAMAG, Muttenz, Switzerland). The immersion volume, speed, time, and depth were approx. 200 mL, 2.5 cm/s, 2 s, and approx. 85 mm, respectively. Afterward, the plates were placed separately in closed plastic boxes, which contained paper towels moistened with water to gain a saturated atmosphere. An incubation at 37 °C for 5 min followed. The substrate indoxyl acetate was freshly prepared in methanol at a concentration of 20 mg/mL and 5 mL was sprayed onto the HPTLC plates with a glass reagent sprayer. During 45-min incubation time at room temperature, AChE cleaves the substrate into indoxyl and acetate. The indoxyl reacts with oxygen to the blue indigo dye. When AChE was inhibited, no indigo was produced and the spot stayed white. The TLC Scanner 3 (CAMAG, Muttenz, Switzerland) was used to scan each track on the plates at 670 nm using the fluorescence mode without optical filter. The CAMAG-embedded software Wincats (Vers. 1.4.9) was used to provide chromatograms of each track and to evaluate inhibition zones.
Several amounts of an OTP mix and an oxon mix were applied on HPTLC plates (Tab. S2) and tested as described in the “Combination of HPTLC and AChE-inhibition assay” section. Three plates were used for each dilution series. The application volume was 10 µL for investigating OTPs with following oxidation and 100 µL for testing OTPs without following oxidation. The application volume for the oxons was 10 µL. They were tested without oxidation step also in triplicates. The peak heights were used for evaluation. Only peaks that have a signal-to-noise ratio ≥ 3 were considered in the evaluation. The height next to the respective peak defines the noise. […]

T1 sequence (O42275 24-633): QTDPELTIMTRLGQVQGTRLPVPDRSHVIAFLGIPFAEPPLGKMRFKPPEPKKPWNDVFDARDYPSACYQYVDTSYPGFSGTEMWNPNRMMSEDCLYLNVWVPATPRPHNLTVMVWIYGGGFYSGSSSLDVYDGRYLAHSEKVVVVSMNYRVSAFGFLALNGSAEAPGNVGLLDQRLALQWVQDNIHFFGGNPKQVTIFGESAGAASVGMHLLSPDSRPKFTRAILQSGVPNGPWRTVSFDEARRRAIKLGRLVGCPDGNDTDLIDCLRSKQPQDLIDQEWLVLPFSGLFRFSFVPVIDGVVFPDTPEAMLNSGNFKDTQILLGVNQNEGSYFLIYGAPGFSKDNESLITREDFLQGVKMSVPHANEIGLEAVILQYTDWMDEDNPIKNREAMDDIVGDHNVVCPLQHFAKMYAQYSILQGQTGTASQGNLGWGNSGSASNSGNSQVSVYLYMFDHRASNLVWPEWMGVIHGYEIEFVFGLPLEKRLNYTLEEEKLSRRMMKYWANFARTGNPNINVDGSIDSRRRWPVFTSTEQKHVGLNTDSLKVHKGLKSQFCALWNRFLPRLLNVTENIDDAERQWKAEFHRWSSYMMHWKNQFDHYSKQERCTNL

SMILES	LOD immersion method (first detected AChE-I peak with signal-to-noise ratio ≥ 3)	IC10 (10% AChE inhibition), best fit	IC20 (20% AChE inhibition), best fit	IC50 (50% AChE inhibition), best fit	IC80 (80% AChE inhibition), best fit
CCOP(=O)(OCC)Oc1nc(Cl)c(Cl)cc1Cl [Chlorpyrifos-oxon]	0.25 ng/spot	0.32 ng/spot	0.57 ng/spot	1.5 ng/spot	4.0 ng/spot
CCOC(=O)CC(SP(=O)(OC)OC)C(=O)OCC (stereo not shown) [Malaoxon, malaoxon]	0.1 ng/spot	0.14 ng/spot	0.24 ng/spot	0.60 ng/spot	1.5 ng/spot
